Assay results published in patent US12673951B2, “Substituted pyrazoloquinazolinone compounds and application thereof” (IMPACT THERAPEUTICS (SHANGHAI), INC, priority 2019, dated 2026).
Like-named read-outs stand apart in the source and are kept apart here.

Columns and labels:
[1] = test system: human breast cancer cell MDA-MB-468; experiment: MTT assay, growth of MDA-MB-468 cells; assay type: cell-based; details: read-out: IC50, growth of MDA-MB-468
Procedure: The cells were seeded into 96-well cell culture plate with appropriate cell density and incubated overnight in a 37° C. 5% CO2 incubator. […] 5 μL of each concentration was added to 120 μL of medium (25 times diluted) and mixed by shaking. The overnight cells were taken and the culture medium was removed, 195 μL of fresh medium was added to each well, and 5 μL of diluted medium containing the corresponding concentration of the tested sample was added, respectively, and the culture plate was then placed in the 5% CO2 cell culture incubator at 37° C. for 7 days (On the fourth day, the medium containing drugs was removed and fresh medium containing drugs was added for continuous cultivation.). After removing the original solution, 100 μL of fresh serum-free DMEM medium containing MTT (0.5 mg/mL) was added to each well, the culture was continued. […] GraphPad Prism 6.0 was used to analyze the data. The inhibitory activity of compounds on cell proliferation was plotted based on cell viability and compound concentration.

[2] = test system: human colon cancer cell SW620; experiment: MTT assay, growth of SW620 cells, compounds combined with CPT-11; assay type: cell-based; details: read-out: IC50, growth of SW620 combined with CPT-11
Procedure: The cells were seeded into 96-well cell culture plate with appropriate cell density and incubated overnight in a 37° C. 5% CO2 incubator. […] 5 μL of each concentration was added to 120 μL of medium (25 times diluted) and mixed by shaking. […] After removing the original solution, 100 μL of fresh serum-free DMEM medium containing MTT (0.5 mg/mL) was added to each well, the culture was continued. […] GraphPad Prism 6.0 was used to analyze the data. The inhibitory activity of compounds on cell proliferation was plotted based on cell viability and compound concentration.

ATM enzyme = molecular target: T1, ATM enzyme (Homo sapiens, UniProt Q13315); experiment: ATM kinase assay (HTRF); assay type: biochemical; details: for inhibition at 1 µM / inhibition at 10 µM / inhibition at 100 µM / inhibition at 0.1 µM: 0.5 h, read-out: Inh (%) ATM kinase inhibition rate; for inhibition at 0.1 µM: C 0.1 μm
T1 construct: purchased Eurofins 14-933
Procedure: The mixture was centrifuged at 1000 rpm for 1 minute, and reacted at room temperature away from light for 30 minutes. Then 5 μL of EDTA stop solution (250 mM) was added to stop the reaction. After 5 μL of detection mixture (Anti-phospho-p53 (ser15)-K (Cisbio, #61P08KAE, 0.084 ng/μL) and Anti-GST-d2 (Cisbio, #61GSTDLA, 5.00 ng/μL)) was finally added to each well, then incubate the plate overnight at room temperature.
Relative fluorescence ratio was calculated: Ratio665 nm/615 nm-Ratiobackground, and inhibition rate %=(1−(relative fluorescence ratio of test compound well−relative fluorescence ratio of positive control well)/(relative fluorescence ratio of negative control well−relative fluorescence ratio of positive control well))×100 was calculated. Data were analyzed using GraphPad Prism6.0, and fitted using the curve equation: Y=Bottom+(Top−Bottom)/(1+10^((Log IC50−X)×HillSlope)) and IC50 values were calculated.

[3] = Homo sapiens, 168 h, MDA-MB-468 cells, 7 days, MTT
[4] = Homo sapiens, SW-620, 120 h, SW620 cells, medium containing 205 nM CPT-11, 5 days, MTT
[5] = Homo sapiens, MDA-MB-468, 168 h

T1 sequence (Q13315 whole entry): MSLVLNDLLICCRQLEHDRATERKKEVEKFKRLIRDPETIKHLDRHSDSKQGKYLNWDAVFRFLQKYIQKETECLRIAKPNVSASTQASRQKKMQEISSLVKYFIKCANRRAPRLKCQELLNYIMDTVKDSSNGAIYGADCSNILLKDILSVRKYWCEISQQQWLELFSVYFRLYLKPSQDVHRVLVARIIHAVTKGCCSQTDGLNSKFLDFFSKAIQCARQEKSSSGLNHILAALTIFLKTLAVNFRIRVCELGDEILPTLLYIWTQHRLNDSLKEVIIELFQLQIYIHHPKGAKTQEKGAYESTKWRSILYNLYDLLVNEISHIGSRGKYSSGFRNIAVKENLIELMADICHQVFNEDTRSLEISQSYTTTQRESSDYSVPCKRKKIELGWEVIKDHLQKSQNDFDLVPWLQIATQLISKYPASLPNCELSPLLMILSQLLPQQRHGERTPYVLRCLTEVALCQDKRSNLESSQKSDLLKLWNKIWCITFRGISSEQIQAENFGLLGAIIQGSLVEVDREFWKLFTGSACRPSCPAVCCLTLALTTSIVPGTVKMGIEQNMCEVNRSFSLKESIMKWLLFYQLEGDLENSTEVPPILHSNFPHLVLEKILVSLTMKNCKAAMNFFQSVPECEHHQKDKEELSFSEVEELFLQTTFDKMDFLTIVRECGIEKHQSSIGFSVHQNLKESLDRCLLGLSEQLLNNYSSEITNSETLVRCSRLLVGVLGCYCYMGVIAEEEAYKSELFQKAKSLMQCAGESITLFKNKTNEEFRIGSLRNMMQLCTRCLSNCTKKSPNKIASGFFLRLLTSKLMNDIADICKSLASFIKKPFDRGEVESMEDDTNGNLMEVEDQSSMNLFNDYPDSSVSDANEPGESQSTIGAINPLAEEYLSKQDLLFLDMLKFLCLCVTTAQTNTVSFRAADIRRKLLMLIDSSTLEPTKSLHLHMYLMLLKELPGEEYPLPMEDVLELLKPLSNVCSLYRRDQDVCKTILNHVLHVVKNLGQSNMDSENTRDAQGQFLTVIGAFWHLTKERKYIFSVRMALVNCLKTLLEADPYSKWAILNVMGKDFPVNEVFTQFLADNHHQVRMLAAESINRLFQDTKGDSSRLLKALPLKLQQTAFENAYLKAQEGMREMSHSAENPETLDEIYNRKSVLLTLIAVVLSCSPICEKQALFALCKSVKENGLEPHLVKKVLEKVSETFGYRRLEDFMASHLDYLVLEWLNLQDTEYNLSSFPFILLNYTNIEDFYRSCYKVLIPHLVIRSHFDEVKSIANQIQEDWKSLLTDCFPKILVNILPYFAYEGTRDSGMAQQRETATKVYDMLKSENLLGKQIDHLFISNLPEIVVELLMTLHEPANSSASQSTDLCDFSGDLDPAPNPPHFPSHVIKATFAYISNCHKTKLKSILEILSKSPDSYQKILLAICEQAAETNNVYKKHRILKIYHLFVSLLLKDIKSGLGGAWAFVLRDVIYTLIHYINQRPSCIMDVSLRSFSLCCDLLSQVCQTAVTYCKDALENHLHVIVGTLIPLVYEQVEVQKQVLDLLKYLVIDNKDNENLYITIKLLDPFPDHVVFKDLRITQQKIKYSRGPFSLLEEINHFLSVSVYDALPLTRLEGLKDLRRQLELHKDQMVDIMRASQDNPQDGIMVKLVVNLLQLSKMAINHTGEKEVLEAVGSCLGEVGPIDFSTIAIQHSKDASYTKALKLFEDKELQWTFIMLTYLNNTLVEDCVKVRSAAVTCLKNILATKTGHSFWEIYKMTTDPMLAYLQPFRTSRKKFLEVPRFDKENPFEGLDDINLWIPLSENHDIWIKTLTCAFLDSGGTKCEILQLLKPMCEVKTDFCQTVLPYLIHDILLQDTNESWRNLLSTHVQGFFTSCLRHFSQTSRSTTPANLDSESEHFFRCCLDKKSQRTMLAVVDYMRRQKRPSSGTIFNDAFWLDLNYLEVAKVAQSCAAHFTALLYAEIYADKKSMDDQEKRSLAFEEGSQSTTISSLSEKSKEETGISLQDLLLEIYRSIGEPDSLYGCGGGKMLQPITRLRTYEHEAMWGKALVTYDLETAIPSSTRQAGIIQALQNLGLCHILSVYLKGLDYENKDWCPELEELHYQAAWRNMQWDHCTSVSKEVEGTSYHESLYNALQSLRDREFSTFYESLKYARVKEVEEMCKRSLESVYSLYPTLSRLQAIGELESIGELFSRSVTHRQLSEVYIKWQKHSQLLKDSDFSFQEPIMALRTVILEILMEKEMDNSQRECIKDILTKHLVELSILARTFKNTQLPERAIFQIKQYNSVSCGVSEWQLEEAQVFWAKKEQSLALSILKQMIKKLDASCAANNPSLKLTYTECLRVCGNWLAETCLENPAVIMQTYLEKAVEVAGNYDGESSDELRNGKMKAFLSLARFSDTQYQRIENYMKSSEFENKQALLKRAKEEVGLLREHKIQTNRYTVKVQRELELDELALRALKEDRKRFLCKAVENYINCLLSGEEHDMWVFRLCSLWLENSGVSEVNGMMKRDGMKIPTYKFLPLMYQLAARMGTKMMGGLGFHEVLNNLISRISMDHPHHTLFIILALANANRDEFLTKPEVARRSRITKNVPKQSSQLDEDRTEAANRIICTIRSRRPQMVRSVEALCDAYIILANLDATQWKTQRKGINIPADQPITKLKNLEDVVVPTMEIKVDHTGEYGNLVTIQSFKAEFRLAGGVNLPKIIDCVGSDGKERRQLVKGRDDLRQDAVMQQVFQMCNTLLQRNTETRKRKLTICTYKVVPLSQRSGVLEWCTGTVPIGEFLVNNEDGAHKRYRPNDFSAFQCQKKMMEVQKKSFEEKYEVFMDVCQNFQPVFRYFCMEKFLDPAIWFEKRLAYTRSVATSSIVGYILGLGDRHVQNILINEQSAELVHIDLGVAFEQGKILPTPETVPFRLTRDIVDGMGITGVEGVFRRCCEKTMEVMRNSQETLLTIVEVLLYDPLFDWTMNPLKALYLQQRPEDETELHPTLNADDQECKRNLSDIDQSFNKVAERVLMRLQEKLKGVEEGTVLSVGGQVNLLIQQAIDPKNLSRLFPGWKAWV

Row | IC50 [1, 3] | IC50 [2, 4] | inhibition at 1 µM (ATM enzyme; C 1 μm) | inhibition at 10 µM (ATM enzyme; C 10 μm) | inhibition at 0.1 µM (ATM enzyme) | IC50 [1, 5] | IC50 ([2]; Homo sapiens, SW-620, 120 h) | Structure (SMILES) | further results
1 |  |  |  |  |  |  |  | CN(C)CCCOc1ccc(-c2ccc3ncc4c(c3c2)n(C2CCOCC2)c(=O)n4C)cn1 [AZD0156, reference compound] | IC50 ([1]; MDA-MB-468 cells, 7 days, MTT): 9.87 nM; IC50 ([2]; SW620 cells, medium containing 205 nM CPT-11, 5 days, MTT): 9.77 nM; Inh (%) ATM kinase inhibition rate (ATM enzyme; C 1 μm): 90%; Inh (%) ATM kinase inhibition rate (ATM enzyme; C 10 μm): 95%; Inh (%) ATM kinase inhibition rate (ATM enzyme; C 100 μm): 100%
2 | 231 nM | > 1000 nM | 0% | 23% |  |  |  | CN(C)CCCOc1ccc(-c2ccc3ncn4[nH]c(=O)c(C5CCOCC5)c4c3c2)cn1 [Example 1, 9-(6-(3-(dimethylamino)propoxy)pyridin-3-yl)-1-(tetrahydro-2H-pyran-4-yl)pyrazolo[1,5-c]quinazolin-2(3H)-one] | inhibition at 100 µM (ATM enzyme; C 100 μm): 69%
3 | 9.5 nM | 9.8 nM | 87% | 96% |  |  |  | CN(C)CCCOc1ccc(-c2ccc3ncn4c(c(C5CCOCC5)c(=O)n4C)c3c2)cn1 [Example 2, 9-(6-(3-(dimethylamino)propoxy)pyridin-3-yl)-3-methyl-1-(tetrahydro-2H-pyran-4-yl)pyrazolo[1,5-c]quinazolin-2(3H)-one] | inhibition at 100 µM (ATM enzyme; C 100 μm): 100%
4 | 6 nM | 6.22 nM | 93% | 98% | 66% |  |  | Cn1c(=O)c(C2CCOCC2)c2c3cc(-c4ccc(OCCCN5CCCCC5)nc4)ccc3ncn21 [Example 3, 9-(6-(3-(piperidin-1-yl)propoxy)pyridin-3-yl)-3-methyl-1-(tetrahydro-2H-pyran-4-yl)pyrazolo[1,5-c]quinazolin-2(3H)-one] | 
5 | 2.38 nM | 1.52 nM | 93% | 100% | 61% |  |  | CN(C)CCCOc1ccc(-c2ccc3ncn4c(c(C5CCOCC5)c(=O)n4C)c3c2)cc1C(F)(F)F [Example 5, 9-(4-(3-(dimethylamino)propoxy)-3-(trifluoromethyl)phenyl)-3-methyl-1-(tetrahydro-2H-pyran-4-yl)pyrazolo[1,5-c]quinazolin-2(3H)-one] | 
6 | 2.71 nM | 2.69 nM | 94% | 98% | 57% |  |  | CN(C)C1CCN(c2ccc(-c3ccc4ncn5c(c(C6CCOCC6)c(=O)n5C)c4c3)cc2F)CC1 [Example 6, 9-(4-(4-(dimethylamino)piperidin-1-yl)-3-fluorophenyl)-3-methyl-1-(tetrahydro-2H-pyran-4-yl)pyrazolo[1,5-c]quinazolin-2(3H)-one] | 
7 | 3.79 nM | 3.16 nM | 91% | 96% | 61% |  |  | CN(C)C1CCN(c2ccc(-c3ccc4ncn5c(c(C6CCOCC6)c(=O)n5C)c4c3)cc2Cl)CC1 [Example 7, 9-(3-chloro-4-(4-(dimethylamino)piperidin-1-yl)phenyl)-3-methyl-1-(tetrahydro-2H-pyran-4-yl)pyrazolo[1,5-c]quinazolin-2(3H)-one] | 
8 | 2.65 nM | 2.1 nM | 99% | 100% | 86% |  |  | CN(C)C1CCN(c2ccc(-c3ccc4ncn5c(c(C6CCOCC6)c(=O)n5C)c4c3)cc2C(F)(F)F)CC1 [Example 8, 9-(4-(4-(dimethylamino)piperidin-1-yl)-3-(trifluoromethyl)phenyl)-3-methyl-1-(tetrahydro-2H-pyran-4-yl)pyrazolo[1,5-c]quinazolin-2(3H)-one] | 
9 | 2.27 nM | 1.46 nM | 95% | 100% | 87% |  |  | CNC1CCN(c2ccc(-c3ccc4ncn5c(c(C6CCOCC6)c(=O)n5C)c4c3)cc2C(F)(F)F)CC1 [Example 10, 9-(4-(4-(methylamino)piperidin-1-yl)-3-(trifluoromethyl)phenyl)-3-methyl-1-(tetrahydro-2H-pyran-4-yl)pyrazolo[1,5-c]quinazolin-2(3H)-one] | 
10 | 3.55 nM | 4.82 nM | 95% | 100% | 66% |  |  | CCNC1CCN(c2ccc(-c3ccc4ncn5c(c(C6CCOCC6)c(=O)n5C)c4c3)cc2C(F)(F)F)CC1 [Example 11, 9-(4-(4-(ethylamino)piperidin-1-yl)-3-(trifluoromethyl)phenyl)-3-methyl-1-(tetrahydro-2H-pyran-4-yl)pyrazolo[1,5-c]quinazolin-2(3H)-one] | 
11 |  |  |  |  |  | 5.55 nM | 5.67 nM | CC(C)c1c(=O)n(C)n2cnc3ccc(-c4ccc(OCCCN(C)C)nc4)cc3c12 [Example 19, 9-(6-(3-(dimethylamino)propoxy)pyridin-3-yl)-1-isopropyl-3-methylpyrazolo[1,5-c]quinazolin-2(3H)-one] | 
12 |  |  |  |  |  | 2.21 nM | 3.48 nM | CC(C)c1c(=O)n(C)n2cnc3ccc(-c4ccc(OCCCN5CCCCC5)nc4)cc3c12 [Example 20, 9-(6-(3-(piperidin-1-yl)propoxy)pyridin-3-yl)-1-isopropyl-3-methyl-pyrazolo[1,5-c]quinazolin-2(3H)-one] | 
13 |  |  |  |  |  | 7.22 nM | 10.5 nM | CC(C)c1c(=O)n(C)n2cnc3ccc(-c4ccc(N5CCC(N(C)C)CC5)c(F)c4)cc3c12 [Example 21, 9-(4-(4-(dimethylamino)piperidin-1-yl)-3-fluorophenyl)-1-isopropyl-3-methylpyrazolo[1,5-c]quinazolin-2(3H)-one] | 
14 |  |  |  |  |  | 22.9 nM | 26.1 nM | CC(C)c1c(=O)n(C)n2cnc3ccc(-c4ccc(N5CCC(N(C)C)CC5)c(Cl)c4)cc3c12 [Example 22, 9-(3-chloro-4-(4-(dimethylamino)piperidin-1-yl)phenyl)-1-isopropyl-3-methylpyrazolo[1,5-c]quinazolin-2(3H)-one] | 
15 |  |  |  |  |  | 6.76 nM | 8.49 nM | CC(C)c1c(=O)n(C)n2cnc3ccc(-c4ccc(N5CCC(N(C)C)CC5)c(C(F)(F)F)c4)cc3c12 [Example 23, 9-(4-(4-(dimethylamino)piperidin-1-yl)-3-(trifluoromethyl)phenyl)-1-isopropyl-3-methylpyrazolo[1,5-c]quinazolin-2(3H)-one] | 
16 |  |  |  |  |  | 43.8 nM | 47.6 nM | CC(C)c1c(=O)n(C)n2cnc3ccc(-c4ccc(OCCCN(C)C)c(F)c4)cc3c12 [Example 24, 9-(4-(3-(dimethylamino)propoxy)-3-fluorophenyl)-1-isopropyl-3-methylpyrazolo[1,5-c]quinazolin-2(3H)-one] | 
17 |  |  |  |  |  | 13.5 nM | 13.4 nM | CC(C)c1c(=O)n(C)n2cnc3ccc(-c4ccc(OCCCN(C)C)c(C(F)(F)F)c4)cc3c12 [Example 25, 9-(4-(3-(dimethylamino)propoxy)-3-(trifluoromethyl)phenyl)-1-isopropyl-3-methylpyrazolo[1,5-c]quinazolin-2(3H)-one] | 
18 | 123 nM | 142 nM | 66.5% |  |  |  |  | CCn1c(=O)c(C2CCOCC2)c2c3cc(-c4ccc(OCCCN(C)C)nc4)ccc3ncn21 [Example 26, 9-(6-(3-(dimethylamino)propoxy)pyridin-3-yl)-3-ethyl-1-(tetrahydro-2H-pyran-4-yl)pyrazolo[1,5-c]quinazolin-2(3H)-one] | 
